According to US8685443B2, “Sequestering subunit and related compositions and methods” (Alpharma Pharmaceuticals LLC, priority 2002, dated 2014):
Where a name gives a salt, the structure may show the parent alone.

Columns and labels:
[1] = hydrochloride salt; cited from earlier work
[2] = in comparison to a 15 mg dose of hydrocodone
opioid receptors = settings: after oral administration; cited from earlier work
mu over delta sites = settings: cited from earlier work

Row | Molecule | Calculated Dose (equianalgesic dose) [2] | further results
1 | O=C1CC[C@@]2(O)[C@H]3Cc4ccc(O)c5c4[C@@]2(CCN3CC2CC2)[C@H]1O5 [hydrochloride salt of naltrexone, naltrexone] | – | solubility in water [1]: about 100 mg/cc
2 | COc1ccc2c3c1OC1C(=O)CC[C@H]4[C@@H](C2)N(C)CC[C@]314 (stereo partly drawn) [Hydrocodone, 4,5-epoxy-3-methoxy-17-methylmorphinan-6-one] | 15.0 mg | –
3 | CCC(=O)C(CC(C)N(C)C)(c1ccccc1)c1ccccc1 (stereo not drawn) [Methadone] | 9.0 mg | –
4 | CN1CC[C@]23CCCC[C@H]2[C@H]1Cc1ccc(O)cc13 [Levorphanol] | 1.8 mg | –
5 | Meperidine | 135.0 mg | –
6 | C[C@H]1[C@H]2Cc3ccc(O)cc3[C@]1(C)CCN2CC1CC1 [cyclazocine] | – | duration of effect (opioid receptors): ~24 h
7 | COc1ccc2c3c1O[C@H]1[C@@H](O)C=C[C@H]4[C@@H](C2)N(C)CC[C@@]341 [Codeine] | 90.0 mg | –
8 | O=C1CC[C@@]2(O)[C@H]3Cc4ccc(O)c5c4[C@@]2(CCN3CC2CC2)[C@H]1O5 [naltrexone] | – | blocking action, mu over delta sites (mu over delta sites): strong preferential blocking action against mu over delta sites
9 | COc1ccc2c3c1OC1C(=O)CC[C@@]4(O)[C@@H](C2)N(C)CC[C@]314 (stereo partly drawn) [Oxycodone, 4,5-epoxy-14-hydroxy-3-methoxy-17-methylmorphinan-6-one] | 13.5 mg | –
